Data taken from patent US20120034250A1, “CONDENSED PYRROLOPYRIDINE DERIVATIVE” (Astellas Pharma Inc., priority 2009, published 2012).

Key:
[1] = molecular target: T1, human JAK1 kinase domain (Homo sapiens, UniProt P23458); experiment: JAK inhibition test: measurement of JAK1 activity; assay type: biochemical; conditions: 500 μM ATP, absorbance at 450 nm
T1 construct: attached to the N-terminal of the 850 to 1154 (C-terminal) fragment of the human JAK1 protein; GST (N); purchased Carna Biosciences, Inc. (Kobe, Japan); host or cells: baculovirus expression system
T1 sequence (P23458 850-1154): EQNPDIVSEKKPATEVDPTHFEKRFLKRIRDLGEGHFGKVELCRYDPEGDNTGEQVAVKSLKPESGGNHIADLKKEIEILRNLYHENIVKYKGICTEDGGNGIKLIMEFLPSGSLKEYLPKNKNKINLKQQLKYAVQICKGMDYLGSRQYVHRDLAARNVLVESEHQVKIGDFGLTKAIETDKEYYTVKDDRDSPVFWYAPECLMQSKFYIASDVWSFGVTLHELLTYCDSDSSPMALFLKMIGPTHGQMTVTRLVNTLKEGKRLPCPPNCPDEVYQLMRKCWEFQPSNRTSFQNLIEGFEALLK
Excerpt: (1) Preparation of Human JAK1
A purified human JAK1 kinase domain was purchased from Carna Biosciences, Inc. (Kobe, Japan). This was obtained as follows. A GST tag (62 kDa) was attached to the N-terminal of the 850 to 1154 (C-terminal) fragment of the human JAK1 protein (accession number #BAD92294.1), expressed using a baculovirus expression system, and then purified using Glutathion Sepharose chromatography.
(2) Measurement of JAK 1 Activity
(§1) As substrates, Biotin-Lyn-Substrate-2 (Biotin-XEQED EPEGF YFEWL EPE, X=ε−Acp (Peptide Institute, Inc., Osaka, Japan) and ATP were used. As an assay buffer, 15 mM Tris-HCl pH 7.5 containing 0.01% Tween 20 and 2 mM DTT was used. Normally, 20 μL of a substrate solution (an assay buffer containing 627 nM Biotin-Lyn-Substrate-2, 500 μM ATP, and 25 mM MgCl2), an assay buffer containing 10 μL of a test compound, and 20 μL of an enzyme solution were added to a microplate, and stirred sufficiently.
(§2) After incubation at room temperature for 1 hour, the plate was washed with a cleaning buffer (50 mM Tris-HCl pH 7.5, 150 mM NaCl, 0.02% Tween 20), and a blocking buffer (a cleaning buffer containing 0.1% bovine serum albumin) was added to the plate. After incubation at room temperature for 30 minutes, the blocking buffer was removed, and an HRP-PY-20 solution (obtained by diluting HRP-PY-20 solution with the blocking buffer 500 times) was added. After incubation at room temperature for 30 minutes, the plate was washed four times, and a TMB substrate solution (Sigma) was added to the plate. After incubation at room temperature for 4 minutes, 1 M sulfuric acid was added to stop the reaction. Enzyme activity was measured with an absorbance at 450 nm. The JAK1 inhibitory activity of the test compound was calculated by taking the concentration of the test compound which inhibits the JAK1 activity by 50% as an IC50 value.

[2] = molecular target: T2, human JAK3 kinase domain (Homo sapiens, UniProt P52333); experiment: JAK inhibition test: measurement of JAK3 activity; assay type: biochemical; conditions: 20 μM ATP, absorbance at 450 nm
T2 construct: attached to the N-terminal of the 796 to 1124 (C-terminal) fragment of the human JAK3 protein; His tag (N); purchased Carna Biosciences, Inc. (Kobe, Japan); host or cells: baculovirus expression system
T2 sequence (P52333 796-1124): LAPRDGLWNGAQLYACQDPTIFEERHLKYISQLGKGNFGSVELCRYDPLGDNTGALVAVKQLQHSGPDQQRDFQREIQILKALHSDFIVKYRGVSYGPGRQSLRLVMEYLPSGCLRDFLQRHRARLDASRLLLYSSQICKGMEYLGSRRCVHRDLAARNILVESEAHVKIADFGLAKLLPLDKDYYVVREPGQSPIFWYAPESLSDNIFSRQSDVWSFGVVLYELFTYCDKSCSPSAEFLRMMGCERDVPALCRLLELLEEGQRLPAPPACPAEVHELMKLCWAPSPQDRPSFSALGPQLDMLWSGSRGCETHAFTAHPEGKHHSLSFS
Excerpt: (5) Preparation of Human JAK3
(§3) A purified human JAK3 kinase domain was purchased from Carna Biosciences, Inc. (Kobe, Japan). This was obtained as follows. A His tag (41 kDa) was attached to the N-terminal of the 796 to 1124 (C-terminal) fragment of the human JAK3 protein (accession number #NM_000215), expressed using a baculovirus expression system, and then purified using Ni-NTA affinity column chromatography.
(6) Measurement of JAK3 Activity
as §1, with “20” for “500”, “solution” for “solution were added to a microplate, and stirred sufficiently.”
as §2, with “JAK3” for “JAK1”

[3] = molecular target: T3, human JAK2 kinase domain (Homo sapiens, UniProt O60674); experiment: JAK inhibition test: measurement of JAK2 activity; assay type: biochemical; conditions: 25 μM ATP, absorbance at 450 nm
T3 construct: attached to the N-terminal of the 826 to 1132 (C-terminal) fragment of the human JAK2 protein; His tag (N); purchased Carna Biosciences, Inc. (Kobe, Japan); host or cells: baculovirus expression system
T3 sequence (O60674 826-1132): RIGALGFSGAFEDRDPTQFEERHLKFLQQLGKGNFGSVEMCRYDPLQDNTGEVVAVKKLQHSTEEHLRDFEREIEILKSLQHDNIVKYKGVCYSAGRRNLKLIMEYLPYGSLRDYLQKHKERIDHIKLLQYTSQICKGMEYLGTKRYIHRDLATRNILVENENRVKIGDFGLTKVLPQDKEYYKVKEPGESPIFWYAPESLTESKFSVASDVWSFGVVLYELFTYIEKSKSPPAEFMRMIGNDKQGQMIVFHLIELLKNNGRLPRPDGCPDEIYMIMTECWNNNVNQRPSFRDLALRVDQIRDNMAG
Excerpt: (3) Preparation of Human JAK2
as §3, with “JAK2” for “JAK3”, “(39” for “(41”, “826” for “796”, “1132” for “1124”, “#NP_004963.1),” for “#NM_000215),”
(4) Measurement of JAK2 Activity
as §1, with “25” for “500”
as §2, with “JAK2” for “JAK1”

[4] = system: stat5 phosphorylation of CD3+lymphocytes in the blood; experiment: Measurement of PD activity (stat5 phosphorylation in blood after oral dosing); assay type: in vivo, rat; conditions: 20 mg/kg orally to normal rats, blood collected 4 hours later, cytokine stimulation, FACS
Procedure: Measurement of PD activity was carried out by evaluating the degree of stat5 phosphorylation of CD3+lymphocytes in the blood.
Compounds at (20 mg/kg) were orally administered to normal rats, and 4 hours later, 200 μL of blood was collected therefrom. For phosphorylation of stat5, stimulating cytokines (IL-2, 7, 15, etc., Peprotec) were added thereto, and CD3 antibodies fluorescently labeled (BD pharmingen) was added at a dose of 1/20, followed by incubation at 37° C. 5 mL of a lysing buffer (BD Pharmingen) was added to stop the reaction, and then washed by the addition of PBS (−) (Phosphate Buffered Saline (−), manufactured by Shin Yang Chemical Industries, Ltd.). 300 μL of a permeabilization buffer (BD Pharmingen) was added thereto, followed by immobilization on ice. The resultant was washed with a FACS buffer, and then fluorescently-labeled phosphorylation stat5 antibodies (BD Pharmingen) were added thereto, followed by further incubation at room temperature. After incubation, the cells were washed with a FACS buffer, insoluble materials were removed through a filter. Fluorescence measurement was carried out using a FACScalibur. For an individual of each rat, a sample with addition of cytokine and a sample without addition of cytokine were prepared, and a difference of the respective average fluorescence intensities (AMFI) was determined. As a control, the blood of rats to which the compound had not been administered was used, and an inhibitory rate was calculated from the average fluorescence intensity of the respective group of the samples to which the compound had been added, relative to the average fluorescence intensity of the control sample (Inhibitory Rate (%)=100*(1−(ΔMFI of Sample)/(ΔMFI of Control)).

[5] = system: heart transplantation rejection; experiment: Rat heart transplantation (heterotopic, ACI donor to Lewis recipient); assay type: in vivo; conditions: 20 mg/kg orally once daily for 14 days from transplantation, observed 29 days
Procedure: Heterotopic heart transplantation into the rat abdomen was performed in accordance with reference materials. With regard to the animals, ACI-based male rats were used as donors and Lewis-based male rats were used as recipients. In addition, Lewis rats were fasted the day before the transplant. The test drugs were orally administered at a dose of 20 mg/kg once daily for 14 days from the date of transplantation. For determining the heart transplantation rejection, the heart transplantation was observed daily by palpation for 29 days after transplantation, and stoppage of beating was taken as rejection. The survival period in days was counted until the day before rejection. From the survival period in days, a value of MST (Median Survival Time) was determined.

C[C@@H]1CCN(C(=O)CC#N)C[C@@H]1n1cc(Br)c2cnc3[nH]cc(C#N)c3c21 (racemic) [Example 2-2]
IC50 [1]: 6.9 nM
IC50 [2]: 0.27 nM
IC50 [3]: 2.5 nM

C[C@@H]1CCN(C(=O)CC#N)C[C@@H]1n1ccc2cnc3[nH]cc(Br)c3c21 (racemic) [Example 2-4]
IC50 [1]: 6.8 nM
IC50 [2]: 0.26 nM
IC50 [3]: 1 nM

C[C@@H]1CCN(C(=O)CC#N)C[C@@H]1n1cc(Br)c2cnc3[nH]ccc3c21 (racemic) [Example 2-5]
Inhibition Ratio (stat5 phosphorylation) [4]: 86%
IC50 [1]: 1.1 nM
IC50 [2]: 0.3 nM
IC50 [3]: 0.6 nM

C[C@@H]1CCN(C(=O)CC#N)C[C@@H]1n1ccc2cnc3[nH]ccc3c21 (racemic) [Example 2-7]
Inhibition Ratio (stat5 phosphorylation) [4]: 95%
MST (Median Survival Time) [5]: >28 days

C[C@@H]1CCN(C(=O)Cn2cnnn2)C[C@@H]1n1ccc2cnc3[nH]ccc3c21 (racemic) [Example 2-14]
IC50 [1]: 3.1 nM
IC50 [2]: 0.52 nM
IC50 [3]: 2.5 nM

Cc1nnnn1CC(=O)N1CC[C@@H](C)[C@@H](n2ccc3cnc4[nH]ccc4c32)C1 (racemic) [Example 2-15]
IC50 [1]: 4.7 nM
IC50 [2]: 1.3 nM
IC50 [3]: 2.9 nM

C[C@@H]1CCN(C(=O)CC#N)C[C@@H]1n1cc(-c2ccncc2)c2cnc3[nH]cc(C#N)c3c21 (racemic) [Example 2-17]
IC50 [1]: 0.76 nM
IC50 [2]: 0.41 nM
IC50 [3]: 0.53 nM

Cc1cc2cnc3[nH]ccc3c2n1[C@H]1CN(C(=O)CC#N)CC[C@H]1C (racemic) [Example 2-74]
Inhibition Ratio (stat5 phosphorylation) [4]: 98%

C[C@@H]1CCN(c2cnc(C#N)cn2)C[C@@H]1n1ccc2cnc3[nH]ccc3c21 (racemic) [Example 4-1]
IC50 [1]: 7.9 nM
IC50 [2]: 0.88 nM
IC50 [3]: 3 nM

C[C@@H]1CCN(c2ccc(C#N)cn2)C[C@@H]1n1ccc2cnc3[nH]ccc3c21 (racemic) [Example 4]
IC50 [1]: 16 nM
IC50 [2]: 1.1 nM
IC50 [3]: 3.5 nM

C[C@@H]1CCN(C(=O)N(C)CC#N)C[C@@H]1n1ccc2cnc3[nH]ccc3c21 (racemic) [Example 5-1]
IC50 [1]: 3 nM
IC50 [2]: 0.61 nM
IC50 [3]: 0.89 nM

C[C@@H]1CCN(S(=O)(=O)N(C)CC#N)C[C@@H]1n1ccc2cnc3[nH]ccc3c21 (racemic) [Example 9-3]
Inhibition Ratio (stat5 phosphorylation) [4]: 62%

O[C@]12CC3C[C@H](C1)[C@H](n1ccc4cnc5[nH]ccc5c41)[C@@H](C3)C2 [Example 1, (1S,3R,4R,5s)-4-(dipyrrolo[2,3-b:2′,3′-d]pyridin-1(6H)-yl)adamantan-1-ol]
IC50 [1]: 6.1 nM
IC50 [2]: 1 nM
IC50 [3]: 1.6 nM

C[C@@H]1CCN(C(=O)CC#N)C[C@@H]1n1ccc2cnc3[nH]ccc3c21 [Example 2-10]
IC50 [1]: 0.49 nM
MST (Median Survival Time) [5]: 17 days
IC50 [2]: 0.19 nM
IC50 [3]: 0.35 nM

C[C@H]1CCN(C(=O)CC#N)C[C@H]1n1ccc2cnc3[nH]cc(C#N)c3c21 [Example 2-18]
melting point: 286 to 290 °C (dec.)

C[C@@H]1CCN(C(=O)CC#N)C[C@@H]1n1ccc2cnc3[nH]cc(C#N)c3c21 [Example 2-19]
melting point: 288 to 290 °C (dec.)
IC50 [1]: 3.2 nM
IC50 [2]: 0.11 nM
IC50 [3]: 1.4 nM
